This note sets out measurements from patent US20030224349A1, “Rapid assay to assess the potential for glucocorticoid analogs to promote the differentiation of human osteoblasts and predict bone safety” (Pfizer Inc., priority 2002, published 2003).

Like-named read-outs stand apart in the source and are kept apart here.

Common to all, as to assay type: cell-based
In one assay the test system is MMP13. In words: inhibition of IL-1β-induced MMP13 release in SW1353 chondrocyte cells (ELISA). The conditions noted are these: Homo sapiens, read-out: IC50, concentration reducing the release of MMP13 50%. A general note: In an ELISA, binding on a coated surface is turned into a signal by an enzyme label.
In another assay the test system is IL-8. In words: inhibition of IL-1β-induced IL-8 release in SW1353 chondrocyte cells (ELISA). The following applies: Homo sapiens, SW1353, 24 h, read-out: IC50, concentration reducing the release of IL-8 50%. The protocol: Glucocorticoids have anti-inflammatory efficacy in a variety of cell models. Clinically, glucocorticoids set the benchmark for anti-inflammatory therapeutics.
For efficacy testing, 10,000 SW1353 cells (ATCC# HTB-94) were plated in 96 well plates in DMEM with 10% Fetal Bovine Serum (FBS). The next day media was changed to DMEM without serum.
After 24 hours the amount of MMP13 and IL-8 released into the media was quantified using commercial ELISA assays (Amersham and R&D Systems, respectively).
The concentration of compound reducing the release of MMP13 or IL-8 50% (IC50) was determined from the plot of the drug dose vs. percent inhibition relative to the vehicle control.

In assay [1] the test system is primary human osteoblasts. In words: alkaline phosphatase assay in primary human osteoblasts. The conditions noted are these: 13 days of treatment.
Protocol: For alkaline phosphatase testing, primary human osteoblasts (Biowhittaker CC-2538) were plated at a density of 4,400 cells per well in 24-well plates containing OGM medium (Biowhittaker CC-3207) with 10% Fetal Bovine Serum (FBS). The next day media was changed to OGM medium supplemented with 0.1 mM ascorbic acid and 10 mM □-glycerophosphate (differentiation supplements, Biowhittaker CC-4194), and treated with reference and test compounds in a range of doses from 100 nM to 10 uM). Fresh media was added 2× per week.
After 13 days the cells were harvested and extract prepared for analysis.
Differentiation supplement medium was changed every three to four days with fresh test compound addition each time. After seven to thirteen days, the amount of alkaline phosphatase produced by the cultures was quantified using commercial alkaline phosphatase reagent (ALP Reagent) and standard (Sigma M2266 and 245-10, respectively).
Cells were rinsed with 0.9% NaCl, and lysed in alkaline phosphatase assay buffer (150 mM Tris-HCl pH 8, 0.1 mM MgCl2, 0.1 mM ZnCl2, 1% Triton X-100). Prewarmed ALP Reagent was added to lysate or to serial dilutions of the alkaline phosphatase standard and incubated at 37° C. for 30 minutes.
The calorimetric endpoint of absorbance at 405 nm was read on a SpectraMax 340 microplate reader (Molecular Devices), and after extrapolation from standard curve, values were reported in units of enzyme activity per volume.
Assay [2] has as its system primary human osteoblasts. In words: nodule assay (Von Kossa staining) in primary human osteoblasts. The following applies: 28 days of treatment.
Protocol: Primary human osteoblasts were cultured as for the alkaline phosphatase assay. After 28 days of test compound treatment, the cultures were fixed with 70% ethanol for 10 minutes, stained with 5% silver nitrate solution and exposed to bright light (Polaroid imaging system with 4×150 watt lamps) for 20 to 30 minutes. Wells were rinsed with water, air dried and nodules documented by micrographs at 300× magnification.

As for `C[C@@H]1C[C@H]2[C@@H]3CCC4=CC(=O)C=C[C@]4(C)[C@@]3(F)[C@@H](O)C[C@]2(C)[C@@]1(O)C(=O)CO` [dexamethasone], the IC50 is around 1 nM with MMP13 (SW1353, 24 h) and around 1 nM in the assay with IL-8.
In the case of `C[C@]12CCC(=O)C=C1CC[C@@H]1[C@@H]2[C@@H](O)C[C@@]2(C)[C@H]1CC[C@]2(O)C(=O)CO` [hydrocortisone], in the assay on MMP13 (SW1353 cells, 10 ng/ml IL-1β, 24 hours), the IC50 was determined as 60 nM. In addition, the “induction of alkaline phosphatase production/activity (in words)” value in assay [1] is “stimulated”; in assay [1] (listed as Hydrocortisone), “dose dependent increase”. For the same compound, in assay [1] (at 1 uM), the “alkaline phosphatase expression, % of dexamethasone maximum” value was “about 64%”. In addition, the “nodule formation / mineral deposition (Von Kossa staining, in words)” value in assay [2] was “dose-dependant nodule formation”.
